From patent US12694522B2, “Systems and methods of correcting batch effect in biological images” (The University of Hong Kong, priority 2022, dated 2026)

Tested on: H2170 cells
Experiment: Drug treatment response of lung cancer cell line H2170 (IC50 concentration level of Table 1)
Type: cell-based
Conditions: Homo sapiens, NCI-H2170; LUSC cell line H2170; concentration level annotated IC50* in Table 1; 24 hours treatment; read-out: IC50 (half-maximal inhibitory concentration of drug)
Experimental: Morphological profiling is emerging as a promising technique in drug screening; however, the presence of batch effects poses a significant challenge. In this context, the efficacy of the CytoMAD approach is evaluated using label-free drug response assays conducted on LUSC (H2170) cells treated with docetaxel, afatinib, and gemcitabine at various concentrations across two distinct batches. This comprises 18 distinct drug treatment conditions, encompassing five concentration levels and one negative control. During the CytoMAD training process, only batch information and drug types are provided, withholding specific drug concentration data. This allows for the evaluation of the model's self-supervised capability to capture morphological changes across concentrations.
Comparative analysis of phenotypic distributions across different drug treatments (representing different colored violins) showcases preserved patterns before and after the implementation of CytoMAD, confirming its capacity to retain cellular information. To further verify the cellular phenotypic preservation capacity of CytoMAD model, treatment response experiment is conducted with lung cancer cell line H2170. In this experiment, H2170 are treated with drugs of different mechanism of action (MoA) (i.e. Docetaxel as microtubule stabilizing agent, Afatinib as tyrosine kinase inhibitor in targeted therapy and Gemcitabine as antimetabolite), each with 5 concentration levels and a negative control with dimethyl sulfoxide (DMSO) for 24 hours as listed in Table 1. They are imaged using multi-ATOM for single-cell BF and QPI images on 6 days, forming 2 batches with ~100,000 cells per drug. Basically, this dataset consists of 2 batches of data, with each batch containing 3 different drug treatments and each treatment comprising 6 different concentration conditions.

IC50 [nM]	SMILES
7.51	Nc1ccn([C@@H]2O[C@H](CO)[C@@H](O)C2(F)F)c(=O)n1 [Gemcitabine]
19	CN(C)C/C=C/C(=O)Nc1cc2c(Nc3ccc(F)c(Cl)c3)ncnc2cc1O[C@H]1CCOC1 [Afatinib]
3.76	CC(=O)O[C@@]12CO[C@@H]1C[C@H](O)[C@@]1(C)C(=O)[C@H](O)C3=C(C)[C@@H](OC(=O)[C@H](O)[C@@H](NC(=O)OC(C)(C)C)c4ccccc4)C[C@@](O)([C@@H](OC(=O)c4ccccc4)[C@H]21)C3(C)C [Docetaxel]
